This passage reports IC25 and IC50 results from PMC7278776, “Multidrug Resistance Modulation Activity of Silybin Derivatives and Their Anti-Inflammatory Potential” (Antioxidants, 2020).

Counter-ions that a name gives are not always drawn.

Data set [1] deals with A2780/DOX. Kind of data set: Viability of A2780/DOX cells (resazurin). As for the experimental part: To determine the NO production, the medium was mixed with Griess reagent (0.04 g/mL, prepared in deionized water) in a 1:1 ratio. After 15 min, absorbance was recorded at 540 nm. To determine cell viability, the resazurin solution (0.03 mg/mL in PBS) was added to the cells. After 2 h of incubation, fluorescence was recorded (560/590 nm, ex./em.).
A multidrug resistant ovarian sub-line resistant to doxorubicin (A2780/DOX, Sigma-Aldrich) was cultivated in DMEM medium with 10% FBS and 1 × antibiotic antimycotic solution. Every other passage, doxorubicin at the final concentration of 0.1 µM was added to the culture medium to maintain the resistance of the cell line. To perform experiments, the cells were seeded at 1 × 10^5 cell/mL into the wells of a 96-well plate and incubated for 24 h. Afterwards, the cells were washed with PBS and fresh DMEM medium with tested compounds at 10, 20 and 30 µM were added to each well, except for the control wells. Subsequently, the cells were exposed to increasing concentrations of doxorubicin (0.6–20 µM) for 72 h. After incubation, the resazurin assay was performed as described above. The IC50 of doxorubicin was calculated for both the control and the samples and the fold change was counted up. […] The fold change lower than 1 means an antagonistic effect. (1) FOLD CHANGE=IC50 value of DOX cells treated with chemotherapeutic /IC50 value of DOX cells treated with chemotherapeutic and compound

Data set [2] deals with A2780/DOX. As to the kind of experiment: Sensitization of the MDR cell line to doxorubicin. Conditions: Homo sapiens, no flavonolignan added, same value repeated in each column, read-out: IC50 of doxorubicin alone. In kind it is cell-based, human.
In data set [3] the test system is nitric oxide (NO) production by LPS-stimulated macrophages (RAW 264.7). Kind of data set: NO production by LPS-stimulated macrophages (Griess). Particulars: Mus musculus, RAW264.7; RAW 264.7, LPS 1 µg/mL, 24 h; read-out: NO Production, concentration necessary to halve NO production (IC50). In kind it is cell-based, mouse. The procedure:
Immunomodulatory effect of tested compounds was determined as their ability to decrease nitric oxide (NO) production by LPS-stimulated macrophages (RAW 264.7, Sigma-Aldrich). Briefly, the cells were seeded into the 96-well plate at a density of 1 × 10^6 cells/mL in DMEM medium (supplemented with 2 mM L-glutamine and 1 × antibiotic antimycotic solution). After 48 h, the cells were washed with PBS. The MEM medium enriched with LPS (1 µg/mL) was added to the wells, together with the samples in the concentration range of 6.25–100 µM at a final volume of 100 µL. Indomethacin, a non-steroidal anti-inflammatory drug, was tested as a positive control in the concentration range 6.25–100 µM. After 24 h, the medium was used for the quantification of NO and inflammatory cytokines.
After 15 min, absorbance was recorded at 540 nm.

In a further data set the target is T1, human recombinant P-gp (Homo sapiens, UniProt P08183).
T1 construct: purchased Promega
T1 sequence (P08183 whole entry): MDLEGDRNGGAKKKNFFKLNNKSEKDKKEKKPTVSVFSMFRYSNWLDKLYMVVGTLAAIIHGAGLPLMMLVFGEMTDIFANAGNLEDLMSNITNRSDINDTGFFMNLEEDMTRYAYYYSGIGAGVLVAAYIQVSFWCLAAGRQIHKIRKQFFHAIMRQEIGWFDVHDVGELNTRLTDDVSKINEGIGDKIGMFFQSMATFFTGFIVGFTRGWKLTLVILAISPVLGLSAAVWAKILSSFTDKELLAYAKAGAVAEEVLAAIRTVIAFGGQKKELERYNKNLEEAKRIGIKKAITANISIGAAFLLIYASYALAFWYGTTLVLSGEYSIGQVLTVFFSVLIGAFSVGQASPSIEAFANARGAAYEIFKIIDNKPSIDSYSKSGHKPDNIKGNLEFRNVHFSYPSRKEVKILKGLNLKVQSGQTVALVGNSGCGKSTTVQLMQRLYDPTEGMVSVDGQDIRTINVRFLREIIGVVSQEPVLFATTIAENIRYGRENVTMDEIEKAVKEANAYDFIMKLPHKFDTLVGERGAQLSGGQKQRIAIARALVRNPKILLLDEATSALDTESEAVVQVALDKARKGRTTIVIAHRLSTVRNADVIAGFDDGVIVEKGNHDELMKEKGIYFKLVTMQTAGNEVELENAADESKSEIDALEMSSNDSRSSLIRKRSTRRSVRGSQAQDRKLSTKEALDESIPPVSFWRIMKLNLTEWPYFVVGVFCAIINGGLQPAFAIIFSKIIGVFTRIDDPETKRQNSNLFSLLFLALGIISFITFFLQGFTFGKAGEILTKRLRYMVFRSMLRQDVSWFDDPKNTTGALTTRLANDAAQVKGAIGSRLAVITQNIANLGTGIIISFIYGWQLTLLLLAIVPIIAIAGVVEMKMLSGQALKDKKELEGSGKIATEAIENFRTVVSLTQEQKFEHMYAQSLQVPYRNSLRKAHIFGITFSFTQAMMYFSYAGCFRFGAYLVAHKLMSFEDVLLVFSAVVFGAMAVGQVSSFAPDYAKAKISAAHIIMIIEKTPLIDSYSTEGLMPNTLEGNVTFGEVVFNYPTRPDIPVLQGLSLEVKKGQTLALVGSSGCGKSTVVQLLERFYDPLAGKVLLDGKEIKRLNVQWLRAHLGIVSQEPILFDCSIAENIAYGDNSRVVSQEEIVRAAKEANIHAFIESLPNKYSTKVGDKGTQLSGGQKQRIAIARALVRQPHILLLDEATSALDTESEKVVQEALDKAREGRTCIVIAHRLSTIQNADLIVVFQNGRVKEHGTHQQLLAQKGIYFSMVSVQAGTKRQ
As to the kind of experiment: biochemical. Conditions: verapamil-stimulated P-gp ATPase, membrane fraction; read-out: P-gp, concentration necessary to halve ATP consumption (IC50). As for the experimental part:
The procedure and the dilution of the reagents were performed according to the manufacturer’s instructions. Briefly, the human recombinant P-gp-containing membrane (25 µg) was mixed in a 96-well plate with P-gp–Glo™ Assay buffer (control), verapamil (P-gp substrate, positive control, 0.2 mM), Na3VO4 (P-gp inhibitor, negative control, 0.1 mM), ATP standards (to construct the calibration curve, 0.375–3 mM) or samples (2.5 µL, in the concentration range 0.7–20 mM). After that, MgATP (5 mM) was added to total volume of 50 µL to each well to initiate the ATPase reaction. The plate was incubated for 1 h at 37 °C. Thereafter, the reaction was stopped by adding 50 µL of ATP detection reagent and incubated at room temperature for 20 min. The remaining non-metabolized ATP was detected as a luciferase-generated signal.
Using linear regression, the standard ATP curve was designed, and by subsequent interpolation of relative luminescence (RLU) of standards, the amount of ATP consumed in the samples was recalculated according to the manufacturer’s guidelines.

Data set [4] in a line: ORAC (oxygen radical absorption capacity) assay. Conditions: fluorescein/AAPH; read-out: ORAC, concentration necessary to halve the fluorescence response (IC50). The procedure:
Antioxidant capacity of samples was determined by ORAC (oxygen radical absorption capacity) and CAA (cellular antioxidant activity) assays. ORAC assay was realized by the previously described protocol. Briefly, 50 µL of the fluorescein solution (1.6 µg/mL in phosphate-buffered saline (PBS), pH 7.4) was added by a dispenser (MultiFlo Microplate Dispenser, BioTek Instrument, Winooski, VT, USA) into each well of a 96-well plate. Subsequently, 2 µL of tested compound in the concentration range 1.25–20 µM and 23 µL of PBS were added to the wells. The plate was incubated for 15 min at 37 °C and then 25 µL of AAPH (60 mg/mL) was added to each well. AAPH was replaced with PBS for the negative control. Immediately, the fluorescence was recorded by the microplate reader (SpectraMax i3 Multi-Mode Detection Platform, Molecular Devices, San Jose, CA, USA) for 2 h in 5 min steps (excitation/emission 485/535 nm).

Another data set relates to HepG2 cells. As to the kind of experiment: CAA (cellular antioxidant activity) assay. Format: cell-based. Conditions: Homo sapiens; HepG2, DCFH-DA/AAPH; read-out: CAA, concentration necessary to halve the fluorescence response (IC50). As for the experimental part: For the CAA assay, human hepatocellular carcinoma HepG2 cells (ATCC, Manassas, VA, USA) were seeded into a 96-well microplate at a density of 1 × 10^5 cells/well in EMEM medium supplemented with 10% of FBS, 2 mM L-glutamine and 1 × antibiotic antimycotic solution. The cells were maintained in a CO2 incubator (5% CO2, 37 °C, Memmert GmbH & Co, Büchenbach, Germany). The following day, the plates were washed with PBS and new fresh DMEM was added into each well supplemented with tested samples in the concentration range of 6.25–100 µM and fluorescent probe DCFH-DA (12.5 mg/L). After 1 h of incubation at 37 °C, the medium was replaced with AAPH solution (0.16 mg/mL in PBS), except for the negative control, where PBS was added instead. Directly, the fluorescence was recorded for 2 h in 5 min steps at 485/540 nm excitation/emission (ex./em.).

As to `COc1cccc2c1C(=O)c1c(O)c3c(c(O)c1C2=O)C[C@@](O)(C(=O)CO)C[C@@H]3O[C@H]1C[C@H](N)[C@H](O)[C@H](C)O1` [Doxorubicin, doxorubicin hydrochloride, reference compound], the IC25 in the data set on A2780/DOX [1] (A2780/DOX) stood at 0.94 µM. Moreover, the IC50 in the data set with A2780/DOX [1] (Homo sapiens, A2780, read-out: IC50 (µM), concentration necessary to halve cell viability) worked out at 1.88 ± 0.07 µM; in the data set with A2780/DOX [2], 1.88 ± 0.07 µM.

Consider `COc1ccc2c(c1)c(CC(=O)O)c(C)n2C(=O)c1ccc(Cl)cc1` [Indomethacin, indomethacin, reference compound], for which, in data set [3], the IC50 stood at 78.1 ± 7.5 µM.

In the case of `[Na+].[Na+].[Na+].[O]=[V]([O-])([O-])[O-]` [Orthovanadate, Sodium orthovanadate (Na3VO4), reference compound], the IC50 on human recombinant P-gp worked out at 18.9 ± 1.8 µM.

Consider `O=c1c(O)c(-c2ccc(O)c(O)c2)oc2cc(O)cc(O)c12` [Quercetin, quercetin, reference compound], for which the values for the IC50 (in data set [4]; in the data set on HepG2 cells) were 6 ± 0.7 µM and 5.4 ± 0.3 µM, respectively.
